{"source": "paper PMC11806944", "about": "(Analytical methods : advancing methods and applications, 2025)", "key": {"zebrafish embryos [1]": {"test_system": "zebrafish embryos", "conditions": "~120 hpf; for Incidence of any effect in embryonic zebrafish: 35 μM exposure with daily UV fluorescence measurement"}, "[2]": {"conditions": "estimated; cited from earlier work"}, "embryonic zebrafish": {"test_system": "embryonic zebrafish", "conditions": "cited from earlier work"}, "[3]": {"conditions": "ref Hazard Substances Data Bank (HSDB); cited from earlier work"}, "[4]": {"assay": "Sorption control wells: abiotic losses to polystyrene 96-well microplate", "type": "physicochemical"}, "zebrafish embryos [5]": {"test_system": "zebrafish embryos", "conditions": "Tropical 5D wild-type, in vivo, 35 μM; for Chemical uptake amount as share of the total chemical amount added: 5 day"}}}
{"smiles": "Oc1ccc2ccccc2c1", "note": "[2-hydroxynaphthalene]", "values": [{"measurement": "Incidence of any effect in embryonic zebrafish", "setting": "zebrafish embryos [1]", "value": 97, "unit": "%"}, {"measurement": "Endpoints observed shared by both chemicals", "setting": "zebrafish embryos [1]; 35 μM exposure", "value": "mortality, yolk sac and pericardial edema, and pectoral fin malformation"}, {"measurement": "log Kow", "setting": "[2]", "value": 2.7}, {"measurement": "Lowest observed adverse effect level (LOAEL)", "setting": "embryonic zebrafish", "value": 35, "unit": "µM"}, {"measurement": "Henry's coefficient", "setting": "[3]", "value": "2.7 × 10^−8 atm m^3 mol^−1"}, {"measurement": "Actual equilibrium media concentration", "setting": "[4]; control wells, reached after 1 day, ~35 μM nominal", "value": "approximately 31.5 μM"}, {"measurement": "Total uptake mass per zebrafish embryo, corrected for abiotic losses", "setting": "zebrafish embryos [5]", "value": "2.09 ± 0.89", "unit": "nmol"}, {"measurement": "Chemical uptake amount as share of the total chemical amount added", "setting": "zebrafish embryos [5]", "value": "approximately 50%"}]}
{"smiles": "c1ccc2nc3ccccc3cc2c1", "note": "[acridine, Acridine]", "values": [{"measurement": "Incidence of any effect in embryonic zebrafish", "setting": "zebrafish embryos [1]", "value": 100, "unit": "%"}, {"measurement": "Endpoints observed shared by both chemicals", "setting": "zebrafish embryos [1]; 35 μM exposure", "value": "mortality, yolk sac and pericardial edema, and pectoral fin malformation"}, {"measurement": "Further endpoints observed", "setting": "zebrafish embryos [1]; 35 μM exposure", "value": "Axis and cranial deformities"}, {"measurement": "log Kow", "setting": "[2]", "value": 3.4}, {"measurement": "Lowest observed adverse effect level (LOAEL)", "setting": "embryonic zebrafish", "value": 35, "unit": "µM"}, {"measurement": "Henry's coefficient", "setting": "[3]", "value": "4 × 10^−7 atm m^3 mol^−1"}, {"measurement": "Decrease in sorption rate when plates were removed from the shaker table", "setting": "[4]; t ≤ 1 day vs t ≥ 1 day", "value": 2, "unit": "factor"}, {"measurement": "Total uptake mass per zebrafish embryo, corrected for abiotic losses", "setting": "zebrafish embryos [5]", "value": "0.67 ± 0.26", "unit": "nmol"}, {"measurement": "Chemical uptake amount as share of the total chemical amount added", "setting": "zebrafish embryos [5]", "value": "~21", "unit": "%"}]}
